According to a melting point compilation (Tetko et al.; mined from patent text by program, amines drawn as free bases though some values may be those of a salt):

| SMILES | melting point [°C] |
| --- | --- |
| O=S(=O)(O)c1cccc(Nc2ccnc3cc(Cl)ccc23)c1 | > 300 |
| CN(C(=O)c1cc(-c2ccccc2)c2sccc2c1)c1ccccc1 | 127 |
| Brc1ccc(C2OCCO2)cc1 | 56 to 57 |
| CC1CN(c2c(F)cc3c(=O)c(C(=O)O)cn(C4CC4)c3c2Cl)CC1N (stereo unspecified) | 231 to 234 |
| CC(C)N(CCN1C(=O)C(=O)c2cc(Br)ccc21)C(C)C | 91 to 93 |
| CCn1ncc2c3c4c(nc21)CCc1ccccc1-c4nn3C | 140 to 141 |
| c1csc(-c2ncc(COc3ccc(CCCn4ccnc4)cc3)s2)c1 | 112 to 113 |
| Cc1ccc(S(=O)(=O)N2CCOC(C)(C)C2)cc1 | 95 to 97 |
| OCCOc1ccccc1-c1ccccc1 | 71 to 75 |
| C=CCOc1ccc(-c2nc3n(c2-c2ccc(OCC=C)cc2)CCS3)cc1 | 135 to 138 |
| CN(C)Cc1ccc2cc(NC(=O)c3ccc(-c4ccc(Cl)cc4)cc3)ccc2n1 | 219 to 221 |
| O=c1oc2cc(O)cc(O)c2c(O)c1C1=CCOc2oc3ccccc3c(=O)c21 | 254 to 256 |
| Cc1cc(CCC2CCC(COc3ccc(C4=NCCO4)cc3)CC2)on1 (stereo unspecified) | 48 to 50 |
| O=C1NCN(c2ccccc2)C12CCN(CC1CCc3ccc(F)cc3C1O)CC2 (stereo unspecified) | 210 to 212 |
| Fc1ccc(Nc2ncnc3cc(-c4ccoc4)ccc23)cc1Cl | 249 to 250 |
| CN(C)N(C)C(=O)NC1c2ccccc2Oc2ccccc21 | 141 to 142 |
| Cc1cc(N2CCN(c3ccccc3)CC2)c(C#N)c(=O)[nH]1 | > 270 |
| Cc1cccc(Cl)c1C1N=C(N(C)C)Cc2ccccc21 (stereo unspecified) | 153 to 154 |
| Cc1c(C)c2c(c(C)c1O)CC[C@@](C)(CCO)O2 | 155 |
| O=C(O)c1cn(Cc2cccc(Oc3ccccc3)c2)nc1-c1ccccc1 | 148 to 149 |

| SMILES | melting point [°C] |
| --- | --- |
| Cc1nc(-n2ccc(C3CC3)cc2=O)sc1C(=O)NCc1ccccc1 | 149 to 151 |
| Cc1cc(-c2cccc(C(F)(F)F)c2)c2nc(OC(F)F)cnc2c1 | 103 to 104 |
| Fc1cc(CC2(Cc3ccnc(F)c3)c3cc(I)ccc3-c3ncccc32)ccn1 | 158 to 161 |
| O=C(Cn1c(-c2cccnc2)ncc(NC(=O)OCc2ccccc2)c1=O)NC(Cc1ccccc1)C(=O)C(F)(F)F (stereo unspecified) | 88 to 91 |
| CC(=O)Oc1ccc(N2C(=O)CC(=O)N2c2ccccc2)cc1 | 132 to 134 |
| Cc1ccnc(C)c1O | 105 to 106 |
| O=C(NN1CCCC1)C(CS)Cc1ccccc1 (stereo unspecified) | 93 |
| Cc1ccc(S(=O)(=O)N[C@@H](C)C(=O)N[C@@H](Cc2ccccc2)C(=O)OCc2ccccc2)cc1 | 109 to 110 |
| O=S(=O)(c1ccc2c(Cl)cnc(Cl)c2c1)N1CCC[C@@H]1CO | 168 |
| Cc1[nH]cnc1CN1CCc2c(c3cccc(OCc4ccccc4)c3n2COCc2ccccc2)C1=O | 170 to 172 |
| NC(=O)c1cccc(-c2nc3sccn3c2-c2ccnc(N[C@@H]3CCCN(S(=O)(=O)c4ccc(Cl)cc4)C3)n2)c1 | 168 to 170 |
| COc1ccc(C2(C#Cc3cccc(-c4nc(C)no4)c3)CCC(=O)CC2)cc1OC1CCCC1 | 88 to 91 |
| Oc1ccc(Cl)c2c1CCCC2 | 58 to 59 |
| O=C(c1cccc(NC(=O)c2ccn3c2CSC3c2cccnc2)c1)c1ccccn1 (stereo unspecified) | 165 |
| COC(=O)c1cc(-c2cccc(C(F)(F)F)c2)c[nH]c1=O | 195 to 201 |
| Cc1cc(-c2c(-c3ccc(S(C)(=O)=O)cc3)cnn(-c3ccc(F)c(F)c3)c2=O)ccc1F | 166 to 168 |
| NC(=O)CN1CC[C@@H](O)C1=O | 195 to 196 |
| O=c1c(-c2ccccc2)c(SCc2ccccc2)oc2cc(O)ccc12 | 215 to 217 |
| CC(C)(C)OC(=O)c1ccc(NC2CCc3cc4nc(COCc5ccccc5)[nH]c(=O)c4cc32)cc1 (racemic) | 194 to 195 |
| O=c1[nH]c2c(c3ccccc13)c1cc(Cl)ccc1n2CC1CC1 | > 300 |

| SMILES | melting point [°C] |
| --- | --- |
| O=C1OCc2c1cc1ccc3c(c1c2-c1ccc(F)cc1)OCO3 | 215 to 218 |
| O=C(NCc1cccc2ccccc12)C1CCc2[nH]cnc2C1 (stereo unspecified) | 142 to 144 |
| O=C(O)c1cccnc1NCc1ccc(Cl)cc1 | 240 to 242 |
| Cc1cn(-c2cc(Br)c3c(c2)CCC(=O)N3)c(C)n1 | 242 |
| c1ccc2c(c1)C[C@H]1Cc3ccccc3[C@H]1O2 (relative stereo) | 59 to 60 |
| ClCCCc1cc2cccnc2[nH]1 | 75 |
| O=C(O)C1=Cc2cc(Cl)cnc2NC1C(F)(F)F (stereo unspecified) | 287 to 288 |
| Cc1ccccc1C(=O)CN1C(=O)C(NC(=O)Nc2cccc(-c3nnn[nH]3)c2)N=C(c2ccccc2F)c2cccc(C)c21 (stereo unspecified) | 216 to 220 |
| N#CCCC=C(c1ccccc1)c1ccccc1 | 64 to 66 |
| CC1=CC(c2cccc(Cl)c2Cl)C(c2nnco2)=C(C)N1 (stereo unspecified) | 235 |
| N#Cc1c(N2CCCCC2)cc(-c2ccc3ccc4cccc5ccc2c3c45)c2c1C(=O)c1ccccc1-2 | 180 to 182 |
| Cc1nc(-c2ccccc2)nc(-c2ccncc2)c1C | 152 to 153 |
| O=C(CS(=O)(=O)c1ncc(Br)cn1)c1ccccc1 | 95 |
| O=C(N=c1ccn(-c2ccccc2)nc1)c1ccccc1 | 175 to 176 |
| Cc1noc(NS(=O)(=O)c2ccccc2-c2ccc(-c3ncco3)cc2COc2ccc(-c3ccccc3)cc2)c1C | 95 to 105 |
| O=c1[nH]c2nc(Cl)nc(Cl)c2s1 | 191 to 192 |
| Cc1ccc(-c2ccc(-c3ccccc3)cc2)n1CC[C@H]1C[C@H](O)CC(=O)O1 (relative stereo) | 104 to 107 |
| C=CC(=O)NC(=O)NCCS(=O)C=C (stereo unspecified) | 109 to 110 |

Now from value to compound:

| melting point [°C] | SMILES |
| --- | --- |
| 84 | CCCc1cc(CCCCC(=O)O)ccc1OC |
| 67 to 68 | CC#CC(C)(C)N(C)C(=O)C(CC)Oc1cncc(Cl)c1 (stereo unspecified) |
| 160 to 161 | COCCOc1c(F)c(Oc2ccc(S(C)(=O)=O)nc2)cc2cc(C3=NCC(CCO)S3)[nH]c12 (stereo unspecified) |
| 175 to 176 | CCCNC1=CC(=O)c2c(OC)ccc(OC)c2C1=O |
| 167 to 168 | CC(C)c1ccc2c(CCCCNS(=O)(=O)c3ccccc3)cc(C(=O)O)c-2cc1 |
| 162 to 164 | COC(=O)CCC(NC(c1ccccc1)c1ccccc1)P(O)O (stereo unspecified) |
| 270 to 273 | CCc1ccc2c(O)c(-c3nnnn3C)cnc2c1 |
| 285 to 288 | NC(/C=C(/F)P(=O)(O)O)CCc1ccc(Sc2cccc(OCc3ccccc3)c2)cc1Cl (stereo unspecified) |
| 138 | COc1ccc(C2(c3ccc(OC)cc3)CC2(Cl)Cl)cc1 |
| 59 to 61 | C[Si](C)(C)CCOc1ccc(N)cn1 |
| 221 | COc1ccc(NC(=O)c2ccncc2)c2c1oc1ccccc12 |
| 130 to 132 | CCn1cc(C(=O)OCC(=O)OCC2CCCCC2)c(=O)c2ccc(C)nc21 |
| 70 to 71 | CC(C)COc1c(NCCCBr)c(=O)c1=O |
| 222 to 225 | CCOCCOc1ccc(-c2ccc3c(c2)C=C(C(=O)O)CCN3S(C)(=O)=O)cc1 |
| 193 to 194 | CNC(=O)Cn1c(Cl)ccc1Cl |
| 142 to 143 | COc1ccc(C(=O)Cc2c(Cl)cncc2Cl)c2c1OCCCCO2 |
| 160 to 162 | CCOC(=O)c1cc(=O)cc(-c2ccc([N+](=O)[O-])cc2)o1 |
| 165 | COC(=O)c1scc(-c2ccccc2)c1-c1ccc(S(=O)(=O)COC(C)=O)c(F)c1 |
| 110 | CN(C)CC(Cc1ccccc1)NC(=O)c1ccccc1 (stereo unspecified) |
| 293 to 294 | COc1ccc2c(c1)S(=O)(=O)c1nccnc1N2 |
| 83 to 85 | CO/C=C(/C(=O)OC)c1ccccc1Oc1cccc(N)c1 |
| 228 to 230 | CCc1cccc(C)c1CNc1cc(C(=O)N(C)C)cc2[nH]c(C)nc12 |

| melting point [°C] | SMILES |
| --- | --- |
| 78 to 80 | O=C1NC(=O)C(Cc2ccc(OC[C@@H]3CCCN3c3ccccn3)cc2)S1 (stereo partly specified) |
| 81.5 to 82 | CCOC(=O)c1cccc(-c2ccccc2C#N)c1 |
| 110 to 119 | CC(=O)Oc1cc(N2C(=O)C=CC2=O)ccc1C(=O)O |
| 297 to 299 | COc1cc(Nc2nc3c(s2)CCCC3c2ccccc2)ccc1C(=O)NN (stereo unspecified) |
| 118 to 119 | c1csc(-c2noc(COc3ccc(CCCn4ccnc4)cc3)n2)c1 |
| 75 to 76 | CCCCCCC(=N)NC(=S)Nc1ccc(F)cc1 |
| 158 | COc1ccc(CN(C)CCCSc2ccc(NC(=O)c3cccc4c(=O)c5cccc(C)c5[nH]c34)cc2)cc1OC |
| 127 to 128 | C=CCOC(=O)c1cccc(C)c1OS(=O)(=O)NC(=O)Nc1nc(C)cc(OC)n1 |
| 208 | Cc1ccc(COc2ccc(CC(NC(=O)c3cc4cc(-c5ccc(Cl)cc5)ccc4s3)C(=O)O)cc2)cc1 (stereo unspecified) |
| 145 to 147 | O=C(NC1CCN(CCCCl)CC1)c1ccccc1 |
| 76 | CCOC(=O)CCNCC(O)COc1ccc(OC)cc1C#N (stereo unspecified) |
| 94 to 96 | CC(CNC(=O)Cc1ccccc1)Oc1ccccc1 (stereo unspecified) |
| 136 to 137 | CS(=O)(=O)Nc1ccc([N+](=O)[O-])cc1OC1CCCCC1 |
| 193 to 195 | COc1cc(C(=O)c2c[nH]c(-c3ccc(Cl)cc3)n2)cc(OC)c1OC |
| 82 to 90 | CON=C(C#N)c1ccccc1S(N)(=O)=O |
| 175 to 177 | COC(=O)c1ncn(Cc2ccc([N+](=O)[O-])cc2)n1 |
| > 250 | Cc1nc(N)c2nc(CO)n(NCc3ccccc3)c2c1C |
| 47 to 49 | CC(C)c1ccc(OCCCCCCCCCCCCC(Cl)(Cl)C(=O)O)cc1 |
| 96 to 97 | CCOC(=O)CCC(C#N)(c1ccc(C(F)(F)F)cc1)N1CCOCC1 (stereo unspecified) |
| 122 | CCOC(=O)c1ccc(NCC(C)Oc2ccc(Cl)c3ccccc23)cc1 (stereo unspecified) |
| 155 to 157 | CCCCn1c(=O)c(NC(=O)Nc2c(C(C)C)cc(N(C)Cc3cccnc3)cc2C(C)C)c(-c2cccc(OC)c2)c2cccnc21 |
